In article PMC6934184, “Selective DNA-PKcs inhibition extends the therapeutic index of localized radiotherapy and chemotherapy” (The Journal of Clinical Investigation, 2019):

Biological target: T1, EPHB4 (Homo sapiens, UniProt P54760)
T1 construct: purchased Thermo Fisher Scientific (Life Technologies) SelectScreen
Test: SelectScreen Z'LYTE
Assay type: biochemical
How it was run: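 NU5455 was profiled across the SelectScreen Broad panel of kinase activity and binding assays. Z'LYTE reactions such as CSF1R ran at apparent Km ATP, while the Adapta CAMK1 assay used ATP listed as 10. Values are given as percent.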

T1 sequence (P54760 16-987): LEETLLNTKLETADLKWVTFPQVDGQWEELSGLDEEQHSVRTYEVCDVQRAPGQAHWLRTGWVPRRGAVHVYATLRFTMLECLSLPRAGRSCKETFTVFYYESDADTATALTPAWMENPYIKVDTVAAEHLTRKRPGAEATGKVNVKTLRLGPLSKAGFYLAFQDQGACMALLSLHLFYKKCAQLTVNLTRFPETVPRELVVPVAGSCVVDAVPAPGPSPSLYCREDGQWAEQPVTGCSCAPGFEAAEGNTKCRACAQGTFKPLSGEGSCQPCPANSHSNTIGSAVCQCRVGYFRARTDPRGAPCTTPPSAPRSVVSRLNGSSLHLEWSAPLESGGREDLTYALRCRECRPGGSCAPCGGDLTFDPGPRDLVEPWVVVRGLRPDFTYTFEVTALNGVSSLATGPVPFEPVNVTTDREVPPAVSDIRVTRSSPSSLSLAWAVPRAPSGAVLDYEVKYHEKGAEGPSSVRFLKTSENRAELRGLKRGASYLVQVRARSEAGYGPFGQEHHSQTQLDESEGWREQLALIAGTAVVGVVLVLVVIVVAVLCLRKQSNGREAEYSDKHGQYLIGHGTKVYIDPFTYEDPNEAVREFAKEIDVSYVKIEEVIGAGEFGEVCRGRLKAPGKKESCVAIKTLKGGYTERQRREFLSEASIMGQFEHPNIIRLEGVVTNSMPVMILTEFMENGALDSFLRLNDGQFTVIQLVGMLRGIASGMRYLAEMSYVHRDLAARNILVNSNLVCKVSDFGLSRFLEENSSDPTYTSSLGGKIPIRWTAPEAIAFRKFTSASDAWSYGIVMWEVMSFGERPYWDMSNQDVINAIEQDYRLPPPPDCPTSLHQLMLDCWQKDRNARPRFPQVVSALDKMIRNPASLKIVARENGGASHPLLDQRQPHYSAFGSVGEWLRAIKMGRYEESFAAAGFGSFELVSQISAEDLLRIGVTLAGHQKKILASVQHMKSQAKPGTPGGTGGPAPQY

SMILES: CN(C(=O)CN1CCOCC1)c1ccc2sc3c(-c4cccc5c(=O)cc(N6CC7CCC(C6)O7)oc45)cccc3c2c1 [NU5455]
- inhibition at 1 µM: -5.3%
